Measurements from EP0508425A1, “Bicyclic amides as inhibitors of acyl-coenzyme a: cholesterol acyl transferase” (SCHERING CORPORATION, priority 1991, dated 1992).

What was measured:
[1] = tested on: ACAT; test: ACAT Assay (in vitro); type: biochemical; conditions: 10 µM test compound; rat liver microsomes
Procedure: This assay measures the activity of ACAT by measuring the ACAT-mediated transfer of tritiated oleic acid from acyl-CoA to cholesterol to give labelled cholesterol oleate. Rat liver microsomes are used as the source of ACAT. Assays are performed in round bottom microtiterplates using a total incubation volume of 50 µL. Each incubation well receives 10 µl assay buffer (0.5M KHPO₄, 10 µM dithiothreitol, pH 7.4), 7.5 µL of 40 mg/mL BSA (Bovine Serum Albumin) and 12.5 µg of microsomal protein. The test compound (in sufficient amount to bring the final concentration to from 0.1 to 25 µM), reference compound, or vehicle control is added and the final volume brought to 47 µL. The microtiterplate is then floated on the surface of a 37°C water bath for fifteen minutes. Incubations are started by the addition of 3 µL ³H-acyl CoA (1µCi/well, final concentration of 10 µM acyl CoA). The plate is then returned to the water bath for 15 minutes. The incubations are then terminated by application of 15 µL from each incubation to individual lanes on a thin layer plate (Silica Gel GF 20 x 20 cm). Standards are applied to several lanes so that the cholesterol ester band can be identified. After drying, the plates are eluted with 90:10:1 petroleum ether:ether:HOAc. The standards are visualized via iodine vapor, and the regions corresponding to cholesterol ester are scraped into 7 mL scintillation vials. 4 mL of scintillant are added to each vial, and the radioactivity quantified. Background count is determined by the boiled controls. Full activity is determined by activity in the presence of vehicle. The percent inhibition is calculated by subtracting the background from both control and test samples, and the test value is calculated as a percentage of the control. For IC₅₀ determinations, the inhibition is plotted against drug doses on a log scale and the concentration at which 50% inhibition is obtained is determined.

[2] = tested on: Hyperlipidemic Hamster; test: In Vivo Assay of Hypolipidemic Agents Using the Hyperlipidemic Hamster; set-up: species or system Hamsters; conditions: oral gavage once daily, seven days, versus control
Procedure: In Vivo Assay of Hypolipidemic Agents Using the Hyperlipidemic Hamster
Hamsters are separated into groups of six and given a control cholesterol diet (Purina Chow #5001 containing 0.5% cholesterol) for seven days. Diet consumption is monitored to determine dietary cholesterol exposure in the face of test compounds. The animals are dosed with the test compound once daily beginning with the initiaton of diet. Dosing is by oral gavage of 0.2 mL of corn oil alone (control group) or solution (or suspension) of test compound in corn oil. All animals moribund or in poor physical condition are euthanized. After seven days, the animals are anesthetized by IM injection of ketamine and sacrificed by decapitation. Blood is collected into vacutainer tubes containing EDTA for plasma lipid analysis and the liver excised for tissue lipid analysis. Data is reported as percent reduction of lipid versus control.

SMILES	ACAT % Inhibition dose = 10 µM [1]	% Reduction in cholesteryl esters (dose in mpk) ([2]; dose 50 mpk)	% Reduction in cholesteryl esters (dose in mpk) ([2]; dose 10 mpk)	% Reduction in cholesteryl esters (dose in mpk) ([2]; dose 25 mpk)
COc1ccc([C@@H]2CCc3ccccc3[C@H]2NC(=O)N(c2ccccc2)c2ccccc2)cc1 (relative stereo) [Example 6, trans-N'-[2-(4'-methoxyphenyl)-1,2,3,4-tetrahydronaphthalen-1-yl]-N,N-diphenylurea]	97%	-16 (50) %	–	–
Cc1cc([C@H]2Cc3ccccc3[C@H]2NC(=O)C(c2ccccc2)c2ccccc2)ccc1O (relative stereo) [Example 9, (+)-cis-N-[2-[4'-hydroxy-3'-methylphenyl)indanyl]-α-phenylbenzeneacetamide]	98%	-66 (50) %	–	–
COc1ccc([C@H]2CCc3ccccc3[C@H]2NC(=O)C(c2ccccc2)c2ccccc2)cc1 (relative stereo) [Example 1, cis-N-[-2-(4'-methoxyphenyl)-1,2,3,4-tetrahydronaphthalen-1-yl]-α-phenylbenzeneacetamide]	–	0 (50) %	–	–
Cc1cc([C@H]2Cc3ccccc3[C@H]2NC(=O)C(c2ccccc2)c2ccccc2)cc(C)c1O (relative stereo) [Example 9A, (+)-cis-N-[2-(3',5'-dimethyl-4'-hydroxyphenyl)indanyl]-α-phenylbenzeneacetamide]	97%	-60 (50) %	–	–
O=C(N[C@@H]1c2ccccc2C[C@@H]1c1cc(Cl)c(O)c(Cl)c1)C(c1ccccc1)c1ccccc1 (relative stereo) [Example 8A, cis-N-[2-(3',5'-dichloro-4'-hydroxyphenyl)indanyl]-α-phenylbenzeneacetamide]	99%	-14 (50) %	–	–
O=C(N[C@@H]1c2ccccc2C[C@@H]1c1ccc(O)cc1)C(c1ccccc1)c1ccccc1 (relative stereo) [Example 3, cis-N-[2-(4'-hydroxyphenyl)indanyl]-α-phenylbenzeneacetamide]	99%	-89%	-71%	-87.5%
O=C(N[C@@H]1c2ccccc2C[C@@H]1c1ccc(O)c(Br)c1)C(c1ccccc1)c1ccccc1 (relative stereo) [Example 7, (+)-cis-N-[2-(3'-bromo-4'-hydroxyphenyl)indanyl]-α-phenylbenzeneacetamide]	100%	-40 (50) %	–	–
Nc1cccc([C@H]2Cc3ccccc3[C@H]2NC(=O)C(c2ccccc2)c2ccccc2)c1 (relative stereo) [Example 5A, cis-N-[2-(3'-aminophenyl)-indanyl]-α-phenylbenzeneacetamide]	95%	–	0 (10) %	–
COc1ccc([C@H]2Cc3ccccc3[C@H]2NC(=O)C(c2ccccc2)c2ccccc2)cc1 (relative stereo) [Example 2, cis-N-[2-(4'-methoxyphenyl)indanyl]-α-phenylbenzeneacetamide]	96%	-17 (50) %	–	–
O=C(N[C@@H]1c2ccccc2C[C@@H]1c1ccc(O)c(Cl)c1)C(c1ccccc1)c1ccccc1 (relative stereo) [Example 8, cis-N-[2-(3'-chloro-4'-hydroxyphenyl)-indanyl]-α-phenylbenzeneacetamide]	99%	-40 (50) %	–	–
CCCCCCCC/C=C\CCCCCCCC(=O)N[C@@H]1c2ccccc2CC[C@H]1c1ccc(O)cc1 (relative stereo) [Example 4, trans-N-[2-(4'-hydroxyphenyl)-1,2,3,4-tetrahydronaphth-1-yl]oleamide]	94%	0 (50) %	–	–
Nc1ccc([C@@H]2Cc3ccccc3[C@H]2NC(=O)C(c2ccccc2)c2ccccc2)cc1 (relative stereo) [Example 5, trans-N-[2-(4'-aminophenyl)indanyl]-α-phenylbenzeneacetamide]	94%	–	–	–
